In patent publication US7678913B2, “Ureas as factor Xa inhibitors” (Portola Pharmaceuticals, Inc., priority 2004, dated 2010):

These compounds were tested against T1, human plasma protein factor Xa (Homo sapiens, UniProt P00742) (assay: Factor Xa IC50 determination (cleavage of chromogenic substrate S-2765)). Conditions: fXa 1 nM, S-2765 100 μM, Tris buffered saline pH 7.4, room temperature.
T1 construct: measure proteolytic activity of the enzyme (factor Xa); purchased Haematologic Technologies (Essex Junction, Vt.); host or cells: human plasma
Format: biochemical
Method in brief: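 Human plasma factor Xa (1 nM) preincubated 5 min at room temperature with inhibitor (0.01 nM–10 μM final) in Tris-buffered saline pH 7.4 with CaCl2, BSA and 5% DMSO. S-2765 added at 100 μM; pNA release at 405 nm over 2 min; initial velocities fitted to four-parameter equation for IC50, duplicates.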

T1 sequence (P00742 235-488 limits assumed): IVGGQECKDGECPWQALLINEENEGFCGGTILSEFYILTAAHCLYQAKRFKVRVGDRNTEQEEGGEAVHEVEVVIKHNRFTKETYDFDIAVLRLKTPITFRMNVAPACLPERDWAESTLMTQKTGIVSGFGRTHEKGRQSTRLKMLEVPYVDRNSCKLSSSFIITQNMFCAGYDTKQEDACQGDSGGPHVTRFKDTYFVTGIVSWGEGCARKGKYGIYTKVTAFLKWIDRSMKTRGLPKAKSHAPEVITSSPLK
T1 sequence (P00742 41-179 partner limits assumed): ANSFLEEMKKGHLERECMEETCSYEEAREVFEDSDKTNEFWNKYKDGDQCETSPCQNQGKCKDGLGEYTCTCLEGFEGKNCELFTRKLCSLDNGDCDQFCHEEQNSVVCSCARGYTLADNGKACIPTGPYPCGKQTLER

| IC50 [nM] | Compound |
| --- | --- |
| ≤ 100 | CN1CCN=C1c1ccc(NC(=O)C(NC(=O)Nc2ccc(Cl)cc2)c2ccccc2)cc1 (stereo not shown) [Example 16, N-[4-(1-methyl-4,5-dihydro-1H-imidazol-2-yl)phenyl]-2-phenyl-2-(4-chlorophenylaminocarbonylamino)-acetamide] |
| 100 to 500 | CN(C)NC(=N)c1ccc(NC(=O)C(NC(=O)Nc2ccc(Cl)cc2)c2ccccc2F)c(F)c1 (stereo not shown) [Example 48, N-[4-(2,2-dimethylhydrazinoimino)-2-fluorophenyl]-2-(2-fluorophenyl)-2-(4-chlorophenylaminocarbonylamino)-acetamide] |
| ≤ 100 | N=C(c1ccc(NC(=O)C(NC(=O)Nc2ccc(Br)cc2)c2ccccc2F)cc1)N1CCCCC1 (stereo not shown) [Example 45, N-[4-(piperidin-1-ylimino)phenyl]-2-(2-fluorophenyl)-2-(4-bromophenylaminocarbonylamino)-acetamide] |
| ≤ 100 | Cc1ccccc1C(NC(=O)Nc1ccc(Cl)cc1)C(=O)Nc1ccc(N2CCOCC2=O)cc1 (stereo not shown) [Example 95, N-[4-(3-oxo-morpholin-4-yl)phenyl]-2-(2-methylphenyl)-2-(4-chlorophenylaminocarbonylamino)-acetamide] |
| ≤ 100 | CN1CCN=C1c1ccc(NC(=O)C(NC(=O)Nc2ccc(Cl)cc2)c2ccccc2I)cc1 (stereo not shown) [Example 114, N-[4-(1-methyl-4,5-dihydro-1H-imidazol-2-yl)phenyl]-2-(2-iodophenyl)-2-(4-chlorophenylaminocarbonylamino)-acetamide] |
| ≤ 100 | CNC(=N)c1ccc(NC(=O)C(NC(=O)Nc2ccc(Cl)cc2)c2ccccc2)cc1 (stereo not shown) [Example 25, N-[4-(methylaminoimino)phenyl]-2-phenyl-2-(4-chlorophenylamino-carbonylamino)-acetamide] |
| ≤ 100 | CN1CCN=C1c1ccc(NC(=O)C(NC(=O)Nc2ccc(Br)cc2)c2cccs2)cc1 (stereo not shown) [Example 30, N-[4-(1-methyl-4,5-dihydro-1H-imidazol-2-yl)phenyl]-2-(2-thienyl)-2-(4-bromophenylaminocarbonylamino)-acetamide] |
| ≤ 100 | Cc1ccccc1C(NC(=O)Nc1ccc(Cl)cc1)C(=O)Nc1ccc(C(=O)N2CCOC2)cc1 (stereo not shown) [Example 98, N-[4-(oxazolidin-3-ylcarbonyl)phenyl]-2-(2-methylphenyl)-2-(4-chlorophenylaminocarbonylamino)-acetamide] |
| ≥ 500 | CN1CCN=C1c1ccc(NC(=O)C(CC(=O)NCc2ccccc2)NC(=O)Nc2ccc(Cl)cc2)cc1 (stereo not shown) [Example 69, N-[4-(1-methyl-4,5-dihydro-1H-imidazol-2-yl)phenyl]-2-(benzylamino-carbonylmethyl)-2-(4-chlorophenylaminocarbonylamino)-acetamide] |
| ≤ 100 | CN(C)C(=N)c1ccc(NC(=O)C(NC(=O)Nc2ccc(Cl)cc2)c2ccccc2Cl)cc1 (stereo not shown) [Example 100, N-[4-(dimethylaminoimino)phenyl]-2-(2-chlorophenyl)-2-(4-chlorophenylaminocarbonylamino)-acetamide] |
| ≤ 100 | N=C(c1ccc(NC(=O)C(NC(=O)Nc2ccc(Cl)cc2)c2ccccc2F)cc1)N1CCCCC1 (stereo not shown) [Example 42] |
| ≥ 500 | N=C(c1ccc(N2C(=O)C(NC(=O)Nc3ccc(Cl)cc3)Cc3ccccc32)cc1)N1CCCC1 (stereo not shown) [Example 135] |
| ≤ 100 | O=C(Nc1ccc(Cl)cc1)NC(C(=O)Nc1ccc(-c2cccc[n+]2[O-])cc1)c1ccccc1I (stereo not shown) [Example 115, N-[4-(N-oxo-pyridin-2-yl)phenyl]-2-(2-iodophenyl)-2-(4-chlorophenylamino-carbonylamino)-acetamide] |
| ≤ 100 | N=C(c1ccc(NC(=O)C(NC(=O)Nc2ccc(Cl)cc2)c2ccccc2I)cc1)N1CCCC1 (stereo not shown) [Example 117] |
| ≥ 500 | CN1CCN=C1c1ccc(NC(=O)C(CC(=O)N2CCCCC2)NC(=O)Nc2ccc(Cl)cc2)cc1 (stereo not shown) [Example 64, N-[4-(1-methyl-4,5-dihydro-1H-imidazol-2-yl)phenyl]-2-(piperidin-1-ylcarbonylmethyl)-2-(4-chlorophenylaminocarbonylamino)-acetamide] |
| ≤ 100 | Cc1ccccc1C(NC(=O)Nc1ccc(Cl)cc1)C(=O)Nc1ccc(C(=N)N(C)C)cc1 (stereo not shown) [Example 86] |
| ≥ 500 | CN1CCN=C1c1ccc(NC(=O)C(CC(C)(C)C)NC(=O)Nc2ccc(Cl)cc2)cc1 (stereo not shown) [Example 4, N-[4-(1-methyl-4,5-dihydro-1H-imidazol-2-yl)phenyl]-2-(2,2-dimethylpropyl)-2-(4-chlorophenylaminocarbonylamino)-acetamide] |
| 100 to 500 | CN1CCN=C1c1ccc(N2C(=O)CC(NC(=O)Nc3ccc(Cl)cc3)C2=O)cc1 (stereo not shown) [Example 72, N-[4-(1-methyl-4,5-dihydro-1H-imidazol-2-yl)phenyl]-3-(4-chlorophenylaminocarbonylamino)-succinimide] |
| ≤ 100 | O=C(Nc1ccc(Cl)cc1)NC(C(=O)Nc1ccc(-c2cccc[n+]2[O-])cc1)c1ccccc1Cl (stereo not shown) [Example 99, N-[4-(N-oxo-pyridin-2-yl)phenyl]-2-(2-chlorophenyl)-2-(4-chlorophenylaminocarbonylamino)-acetamide] |
| ≥ 500 | CN1CCN=C1c1ccc(NC(=O)C(CC(N)=O)NC(=O)Nc2ccc(Cl)cc2)cc1 (stereo not shown) [Example 71, N-[4-(1-methyl-4,5-dihydro-1H-imidazol-2-yl)phenyl]-2-(aminocarbonylmethyl)-2-(4-chlorophenylaminocarbonylamino)-acetamide] |
| ≤ 100 | O=C(Nc1ccc(Br)cc1)NC(C(=O)Nc1ccc(-c2cccc[n+]2[O-])cc1)c1ccccc1F (stereo not shown) [Example 52, N-[4-(N-oxo-pyridin-2-yl)phenyl]-2-(2-fluorophenyl)-2-(4-bromophenylaminocarbonylamino)-acetamide] |
| ≤ 100 | Cc1ccccc1C(NC(=O)Nc1ccc(Cl)cc1)C(=O)Nc1ccc(C(=N)N2CCCC2)cc1 (stereo not shown) [Example 87] |
| ≤ 100 | COc1ccccc1C(NC(=O)Nc1ccc(Cl)cc1)C(=O)NCC1CCN(c2ccncc2)CC1 (stereo not shown) [Example 108, N-[1-(pyridin-4-yl)piperidin-4-yl]methyl-2-(2-methoxyphenyl)-2-(4-chlorophenylaminocarbonylamino)-acetamide] |
| ≤ 100 | CC#CCC(NC(=O)Nc1ccc(Cl)cc1)C(=O)Nc1ccc(C2=NCCN2C)cc1 (stereo not shown) [Example 130, N-[4-(1-methyl-4,5-dihydro-1H-imidazol-2-yl)phenyl]-2-(but-2-yn-1-yl)-2-(4-chlorophenylaminocarbonylamino)-acetamide] |
| ≤ 100 | CN(C)Cc1ccccc1-c1ccc(NC(=O)C(NC(=O)Nc2ccc(Cl)cc2)c2ccccc2F)cc1 (stereo not shown) [Example 55, N-[4-(2-dimethylaminomethyl-phenyl)phenyl]-2-(2-fluorophenyl)-2-(4-chlorophenylaminocarbonylamino)-acetamide] |
| 100 to 500 | CC(=N)N1CCC(CNC(=O)C(NC(=O)Nc2ccc(Cl)cc2)c2ccccc2F)CC1 (stereo not shown) [Example 54, N-[(N-acetimidyl-piperidin-4-yl)methyl]-2-(2-fluorophenyl)-2-(4-chlorophenylaminocarbonylamino)-acetamide] |
| ≤ 100 | CN1CCN=C1c1ccc(NC(=O)C(NC(=O)Nc2ccc(Cl)cc2)c2ccccc2F)cc1 (stereo not shown) [Example 11, N-[4-(1-methyl-4,5-dihydro-1H-imidazol-2-yl)phenyl]-2-(2-fluorophenyl)-2-(4-chlorophenylaminocarbonylamino)-acetamide] |
| ≤ 100 | N=C(c1ccc(NC(=O)C(NC(=O)Nc2ccc(Cl)cc2)c2cccs2)cc1)N1CCCC1 (stereo not shown) [Example 21] |
